From ChEMBL document CHEMBL5576056, “Design, synthesis and biological evaluation of novel quinazoline derivatives as immune checkpoint inhibitors” (Bioorg Med Chem Lett, 2024)
pIC50: −log10 of the molar value. Activity calls are given as the source filed them. No cut-off for these calls is given here.

Columns and labels:
A2780 [1] = test: Antiproliferative activity against human A2780 cells assessed as cell viability at 50 uM incubated for 72 hrs by CCK8 assay; type: functional; conditions: read-out: Activity
A2780 [2] = test: Antiproliferative activity against human A2780 cells assessed as cell viability incubated for 72 hrs by CCK8 assay; type: functional, cell-based; conditions: A2780, 72 h
[3] = Cytotoxicity against HK-2 cells; type: toxicity, cell-based; conditions: human
[4] = Cytotoxicity against non-cancerous fallopian tube ovarian cell (unknown origin); type: toxicity, cell-based; conditions: non-cancerous fallopian tube ovarian cells
A2780 [5] = test: Induction of apoptosis in human A2780 cells assessed as increase in cleaved caspase-3 level at IC50 concentration incubated for 72 hrs by immunoblotting analysis; type: functional, cell-based
A2780 [6] = test: Induction of apoptosis in human A2780 cells assessed as increase in cleaved PARP level at IC50 concentration incubated for 72 hrs by immunoblotting analysis; type: functional, cell-based
A2780 [7] = test: Induction of apoptosis in human A2780 cells assessed as increase in cytochrome C release at IC50 concentration incubated for 72 hrs by immunoblotting analysis; type: functional, cell-based
A2780 [8] = test: Induction of apoptosis in human A2780 cells assessed as increase in cleaved caspase-8 level at IC50 concentration incubated for 72 hrs by immunoblotting analysis; type: functional, cell-based
A2780 [9] = test: Reduction in IDO1 level in human A2780 cells at IC50 concentration incubated for 72 hrs by immunoblotting analysis; type: functional, cell-based
A2780 [10] = test: Reduction in PD-L1 expression in human A2780 cells at IC50 concentration incubated for 72 hrs by immunoblotting analysis; type: functional, cell-based
A2780 [11] = test: Inhibition of tumor sphere formation in human A2780 cells at IC50 concentration; type: functional, cell-based
A2780 [12] = test: Downregulation of Sox2 expression in human A2780 cells at IC50 concentration; type: functional, cell-based
A2780 [13] = test: Downregulation of CD133 expression in human A2780 cells at IC50 concentration; type: functional, cell-based
A2780 [14] = test: Downregulation of Oct4 expression in human A2780 cells at IC50 concentration; type: functional, cell-based
A2780 [15] = test: Downregulation of Nanog expression in human A2780 cells at IC50 concentration; type: functional, cell-based
A2780 [16] = test: Cytotoxicity against cisplatin resistant human A2780 cells assessed as reduction in cell viability at IC50 concentration incubated for 72 hrs in presence of cisplatin by CCK-8 method; type: functional, cell-based
A2780 [17] = test: Induction of apoptosis in human A2780 cells assessed as increase in mature AIF expression at IC50 concentration incubated for 72 hrs by immunoblotting analysis; type: functional, cell-based
A2780 [18] = test: Inhibition of tumor sphere formation in human A2780 cells assessed as reduction in diameter of the sphere at IC50 concentration (Rvb > 200 micrometer); type: functional
A2780 [19] = test: Induction of apoptosis in human A2780 cells assessed as increase in cleaved caspase-9 level at IC50 concentration incubated for 72 hrs by immunoblotting analysis; type: functional, cell-based

| SMILES | pIC50 (A2780 [2]) | viability at 50 µM (A2780 [1]) [%] | pIC50 [3] | pIC50 [4] | Activity (A2780 [5]) | Activity (A2780 [6]) | Activity (A2780 [7]) | Activity (A2780 [8]) | Activity (A2780 [9]) | Activity (A2780 [10]) | inhibition (A2780 [11]) | Activity (A2780 [12]) | Activity (A2780 [13]) | Activity (A2780 [14]) | Activity (A2780 [15]) | Activity (A2780 [16]) | Activity (A2780 [17]) | Activity (A2780 [18]) [um] | Activity (A2780 [19]) |
| --- | --- | --- | --- | --- | --- | --- | --- | --- | --- | --- | --- | --- | --- | --- | --- | --- | --- | --- | --- |
| COc1ccc(NC(=O)C2CCN(c3ncnc4ccccc34)CC2)c(OC)c1 | – | 60 | – | – | – | – | – | – | – | – | – | – | – | – | – | – | – | – | – |
| O=C(Nc1ccccc1F)C1CCN(c2ncnc3ccccc23)CC1 | – | 52 | – | – | – | – | – | – | – | – | – | – | – | – | – | – | – | – | – |
| O=C(Nc1ccc(I)cc1F)C1CCN(c2ncnc3ccccc23)CC1 | – | 76 | – | – | – | – | – | – | – | – | – | – | – | – | – | – | – | – | – |
| O=C(Nc1ccccc1Cl)C1CCN(c2ncnc3ccccc23)CC1 | 4.65 | 30 | < 4.30 | < 4.30 | Active | Active | Active | Active | Active | Active | Active | Active | Active | Active | Active | – | Active | – | Active |
| O=C(Nc1cccc2c1OCCO2)C1CCN(c2ncnc3ccccc23)CC1 | – | 64 | – | – | – | – | – | – | – | – | – | – | – | – | – | – | – | – | – |
| O=C(Nc1cccc(F)c1)C1CCN(c2ncnc3ccccc23)CC1 | – | 58 | – | – | – | – | – | – | – | – | – | – | – | – | – | – | – | – | – |
| O=C(Nc1ccc(F)cc1)C1CCN(c2ncnc3ccccc23)CC1 | – | 68 | – | – | – | – | – | – | – | – | – | – | – | – | – | – | – | – | – |
| O=C(Nc1ccc(F)c(Cl)c1)C1CCN(c2ncnc3ccccc23)CC1 | – | 53 | – | – | – | – | – | – | – | – | – | – | – | – | – | – | – | – | – |
| O=C(Nc1ccc([N+](=O)[O-])cc1)C1CCN(c2ncnc3ccccc23)CC1 | 5.31 | 33 | < 4.30 | < 4.30 | Active | Active | Active | – | Active | Active | Active | inactive | Active | – | Active | – | Active | – | – |

Second part, led by results:

| pIC50 (A2780 [2]) | SMILES | viability at 50 µM (A2780 [1]) [%] | pIC50 [3] | pIC50 [4] | Activity (A2780 [5]) | Activity (A2780 [6]) | Activity (A2780 [7]) | Activity (A2780 [8]) | Activity (A2780 [9]) | Activity (A2780 [10]) | inhibition (A2780 [11]) | Activity (A2780 [12]) | Activity (A2780 [13]) | Activity (A2780 [14]) | Activity (A2780 [15]) | Activity (A2780 [16]) | Activity (A2780 [17]) | Activity (A2780 [18]) [um] | Activity (A2780 [19]) |
| --- | --- | --- | --- | --- | --- | --- | --- | --- | --- | --- | --- | --- | --- | --- | --- | --- | --- | --- | --- |
| 5.25 | O=C(Nc1ccc(Cl)cc1)C1CCN(c2ncnc3ccccc23)CC1 | 26 | < 4.30 | < 4.30 | Active | Active | Active | Active | Active | Active | Active | Active | Active | Active | Active | Active | – | – | – |
| 4.83 | Nc1nonc1C(=NO)Nc1ccc(F)c(Cl)c1 | – | 4.51 | 4.74 | – | – | – | – | – | – | – | – | – | – | – | – | – | – | – |
| 5.00 | COc1ccc(NC(=O)C2CCN(c3ncnc4ccccc34)CC2)cc1 | 27 | < 4.30 | < 4.30 | Active | Active | Active | – | Active | Active | – | inactive | Active | – | Active | – | Active | <200 | – |
| 4.97 | O=C(Nc1ccc(Br)cc1)C1CCN(c2ncnc3ccccc23)CC1 | 28 | < 4.30 | < 4.30 | – | – | – | Active | Active | Active | Active | Active | Active | Active | Active | – | Active | – | – |
| 4.92 | O=C(Nc1cccc(Cl)c1)C1CCN(c2ncnc3ccccc23)CC1 | 22 | < 4.30 | < 4.30 | Active | Active | Active | Active | Active | Active | Active | Active | Active | Active | Active | – | – | – | Active |
| < 4.30 | O=C(Nc1ccccc1)C1CCN(c2ncnc3ccccc23)CC1 | 42 | < 4.30 | < 4.30 | – | – | – | – | – | – | – | – | – | – | – | – | – | – | – |
